Test [1] concerns the target T1, soybean 7S globulin (7S; β-conglycinin) (Glycine max, UniProt P0DO16+P11827+P25974).
T1 construct: gene CG-1; mature trimers of α, α’ and β, 150-180 kDa
T1 sequence (P11827 63-621): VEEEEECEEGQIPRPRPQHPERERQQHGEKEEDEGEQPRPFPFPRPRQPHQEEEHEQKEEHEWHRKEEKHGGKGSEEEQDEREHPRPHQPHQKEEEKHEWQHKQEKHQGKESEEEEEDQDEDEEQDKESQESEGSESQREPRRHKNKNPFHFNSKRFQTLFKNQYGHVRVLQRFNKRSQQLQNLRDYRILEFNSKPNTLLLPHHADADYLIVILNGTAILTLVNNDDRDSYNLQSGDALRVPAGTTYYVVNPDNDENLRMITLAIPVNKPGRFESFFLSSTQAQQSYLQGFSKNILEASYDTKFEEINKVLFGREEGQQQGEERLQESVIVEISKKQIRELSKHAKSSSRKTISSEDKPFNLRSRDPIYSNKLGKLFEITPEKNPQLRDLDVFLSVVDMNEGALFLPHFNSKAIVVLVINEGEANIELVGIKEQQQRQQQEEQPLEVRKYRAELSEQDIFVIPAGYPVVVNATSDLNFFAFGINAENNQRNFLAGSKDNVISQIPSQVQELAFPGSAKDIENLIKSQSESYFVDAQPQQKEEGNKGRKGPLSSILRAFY
T1 sequence (P0DO16 63-605): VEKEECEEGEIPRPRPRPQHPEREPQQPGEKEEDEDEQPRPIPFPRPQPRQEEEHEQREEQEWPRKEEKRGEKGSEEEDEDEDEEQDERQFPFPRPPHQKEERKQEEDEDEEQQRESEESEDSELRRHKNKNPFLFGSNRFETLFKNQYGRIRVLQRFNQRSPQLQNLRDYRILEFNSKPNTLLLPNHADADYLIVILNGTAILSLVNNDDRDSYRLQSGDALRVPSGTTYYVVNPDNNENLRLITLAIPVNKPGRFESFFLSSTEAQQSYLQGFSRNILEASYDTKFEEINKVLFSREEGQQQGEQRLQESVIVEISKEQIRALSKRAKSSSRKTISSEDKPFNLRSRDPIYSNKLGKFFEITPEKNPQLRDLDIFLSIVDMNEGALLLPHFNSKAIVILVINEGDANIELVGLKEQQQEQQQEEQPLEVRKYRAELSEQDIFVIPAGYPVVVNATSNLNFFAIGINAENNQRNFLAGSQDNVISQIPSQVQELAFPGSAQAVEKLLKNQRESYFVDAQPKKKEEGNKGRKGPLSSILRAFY
T1 sequence (P25974 24-439): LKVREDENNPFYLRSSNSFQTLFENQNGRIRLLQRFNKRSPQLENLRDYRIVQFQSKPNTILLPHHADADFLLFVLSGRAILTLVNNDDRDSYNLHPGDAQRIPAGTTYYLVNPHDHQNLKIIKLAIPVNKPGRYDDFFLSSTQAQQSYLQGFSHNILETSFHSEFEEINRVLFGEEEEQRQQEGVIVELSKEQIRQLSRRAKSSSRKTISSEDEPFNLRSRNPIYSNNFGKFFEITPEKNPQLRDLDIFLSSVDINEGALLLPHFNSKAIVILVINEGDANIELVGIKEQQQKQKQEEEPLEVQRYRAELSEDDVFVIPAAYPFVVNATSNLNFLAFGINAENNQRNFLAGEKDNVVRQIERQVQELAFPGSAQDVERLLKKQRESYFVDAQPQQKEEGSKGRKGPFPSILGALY
Put plainly: intrinsic fluorescence quenching, double-logarithmic fit. To be noted: 10 mM phosphate pH 7.0, 298 K, 10 μM 7S, 0-12 μM ligand. It counts as binding. An excerpt:
intrinsic fluorescence quenching, double-logarithmic fit on soybean 7S globulin (7S; β-conglycinin)

For test [2], the target named is T1, soybean 7S globulin (7S; β-conglycinin). Put plainly: isothermal titration calorimetry, one-site model. It counts as binding. To be noted: 10 mM phosphate pH 7.0, 25 °C, 5 mM ligand. The source says:
isothermal titration calorimetry, one-site model on soybean 7S globulin (7S; β-conglycinin)
For orientation: In ITC the heat of successive injections is recorded.

Marks after values point to notes of the source that are not given here.

In general, Kd refers to the concentration at which binding is half-saturated. Low values mean higher affinity, high ones lower affinity.

With `O=C(O[C@@H]1Cc2c(O)cc(O)cc2O[C@@H]1c1cc(O)c(O)c(O)c1)c1cc(O)c(O)c(O)c1` [EGCG, (−)-epigallocatechin gallate], the “Ka (10^4 L/mol)” value in test [1] (n = 1.25) is reported as 6.23 ± 0.30 (10^4). The compound also displayed a Kd in test [2] (5 μM 7S, N = 1.68 sites) of 485 µM.
Regarding `O=C(/C=C/c1ccc(O)c(O)c1)O[C@@H]1C[C@](O)(C(=O)O)C[C@@H](O)[C@H]1O` [CA, chlorogenic acid], in test [1] (n = 1.42), the “Ka (10^4 L/mol)” value is reported as 7.44 ± 0.32 (10^4). The compound also registered a Kd in test [2] (10 μM 7S, N = 7.23 sites) of 444 µM.
With `O=C(O)c1cc(O)c(O)c(O)c1` [GA, gallic acid], the “Ka (10^4 L/mol)” value in test [1] (n = 1.12) is reported as 5.10 ± 0.30 (10^4). The same compound showed a Kd in test [2] (10 μM 7S, N = 10.0 sites) of 720 µM.

For the origin of these results see PMC10649178, “Exploring the Interactions of Soybean 7S Globulin with Gallic Acid, Chlorogenic Acid and (−)-Epigallocatechin Gallate” (Foods, 2023).
